Test results published in patent US7767659B2, “Synthesis of naturally occurring ecteinascidins and related compounds” (Pharma Mar, S.A., priority 2002, dated 2010).

Legend:
[1] = system: PANC-1; test: Inhibition of cells growth by colorimetric assay (SRB); conditions: Homo sapiens, PANC-1, 48 h; for GI50: read-out: PANC-1 GI50; for CC50: read-out: PANC-1 LC50; for IC (TGI): read-out: PANC-1 TGI
Summary of the method: (§1)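 Colorimetric SRB read (490 nm) on triplicate wells after 48 h at 37 °C, 5% CO2. Dose range 10 to 10^−8 μg/ml; 5×10^3 cells/well pre-attached 18 h.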

[2] = system: LoVo-Dox; test: as above; conditions: Homo sapiens, 48 h; for GI50: read-out: LOVO-DOX GI50; for CC50: read-out: LOVO-DOX LC50; for IC (TGI): read-out: LOVO-DOX TGI
Summary of the method: as §1

[3] = system: SK-BR-3; test: as above; conditions: Homo sapiens, SK-BR-3, 48 h; for GI50: read-out: SK-BR3 GI50; for CC50: read-out: SK-BR3 LC50; for IC (TGI): read-out: SK-BR3 TGI
Summary of the method: as §1

[4] = system: IGROV-ET; test: as above; conditions: Homo sapiens, 48 h; for GI50: read-out: IGROV-ET GI50; for CC50: read-out: IGROV-ET LC50; for IC (TGI): read-out: IGROV-ET TGI
Summary of the method: as §1

[5] = system: DU-145; test: as above; conditions: Homo sapiens, DU-145, 48 h; for GI50: read-out: DU145 GI50; for CC50: read-out: DU145 LC50; for IC (TGI): read-out: DU145 TGI
Summary of the method: as §1

[6] = system: SK-MEL-28; test: as above; conditions: Homo sapiens, SK-MEL-28, 48 h; for GI50: read-out: MEL-28 GI50; for CC50: read-out: MEL-28 LC50; for IC (TGI): read-out: MEL-28 TGI
Summary of the method: as §1

[7] = system: IGROV-1; test: as above; conditions: Homo sapiens, IGROV-1, 48 h; for GI50: read-out: IGROV GI50; for CC50: read-out: IGROV LC50; for IC (TGI): read-out: IGROV TGI
Summary of the method: as §1

[8] = system: HeLa-APL; test: as above; conditions: Homo sapiens, 48 h; for GI50: read-out: HELA-APL GI50; for CC50: read-out: HELA-APL LC50; for IC (TGI): read-out: HELA-APL TGI
Summary of the method: as §1

[9] = system: LNCaP; test: as above; conditions: Homo sapiens, LNCaP, 48 h; for GI50: read-out: LNCAP GI50; for CC50: read-out: LNCAP LC50; for IC (TGI): read-out: LNCAP TGI
Summary of the method: as §1

[10] = system: HeLa; test: as above; conditions: Homo sapiens, HeLa, 48 h; for GI50: read-out: HELA GI50; for CC50: read-out: HELA LC50; for IC (TGI): read-out: HELA TGI
Summary of the method: as §1

[11] = system: K-562; test: as above; conditions: Homo sapiens, K562, 48 h; for GI50: read-out: K562 GI50; for CC50: read-out: K562 LC50; for IC (TGI): read-out: K562 TGI
Summary of the method: as §1

[12] = system: HT-29; test: cells; conditions: Homo sapiens, HT-29, 48 h; for GI50: read-out: HT29 GI50; for CC50: read-out: HT29 LC50; for IC (TGI): read-out: HT29 TGI
Summary of the method: as §1

[13] = system: A-549; test: cells; conditions: Homo sapiens, A549, 48 h; for GI50: read-out: A549 GI50; for CC50: read-out: A549 LC50; for IC (TGI): read-out: A549 TGI
Summary of the method: as §1

[14] = system: LoVo; test: cells; conditions: Homo sapiens, LoVo, 48 h; for GI50: read-out: LOVO GI50; for CC50: read-out: LOVO LC50; for IC (TGI): read-out: LOVO TGI
Summary of the method: as §1

COc1c(C)cc2c(c1O)[C@H]1N[C@@H](C2)[C@H](C#N)N2C1[C@@H]1SC[C@]3(NCCc4c3[nH]c3ccc(C)cc43)C(=O)OC[C@H]2c2c3c(c(C)c(OC(C)=O)c21)OCO3 (stereo partly shown) [compound 62]
GI50 [1]: 0.00386 µM | CC50 [1]: 4.75 µM | IC (TGI) [1]: 0.0135 µM | GI50 [2]: 0.136 µM | CC50 [2]: 13.1 µM | IC (TGI) [2]: 0.558 µM | GI50 [3]: 0.00101 µM | CC50 [3]: 0.103 µM | IC (TGI) [3]: 0.00474 µM | GI50 [4]: 0.0266 µM | CC50 [4]: 2.92 µM | IC (TGI) [4]: 0.0695 µM | GI50 [5]: 0.0033 µM | CC50 [5]: 3.59 µM | IC (TGI) [5]: 0.0104 µM | GI50 [6]: 0.00246 µM | CC50 [6]: 0.00978 µM | IC (TGI) [6]: 0.00492 µM | GI50 [7]: 0.00259 µM | CC50 [7]: 3.9 µM | IC (TGI) [7]: 0.00655 µM | GI50 [8]: 0.0023 µM | CC50 [8]: 0.0103 µM | IC (TGI) [8]: 0.00488 µM | GI50 [9]: 0.00301 µM | CC50 [9]: 0.0084 µM | IC (TGI) [9]: 0.00503 µM | GI50 [10]: 0.00237 µM | CC50 [10]: 0.011 µM | IC (TGI) [10]: 0.00511 µM | GI50 [11]: 0.00194 µM | CC50 [11]: 6.02 µM | IC (TGI) [11]: 0.011 µM | GI50 [12]: 0.00403 µM | CC50 [12]: 12.5 µM | IC (TGI) [12]: 0.283 µM | GI50 [13]: 0.00456 µM | CC50 [13]: 0.334 µM | IC (TGI) [13]: 0.0165 µM | GI50 [14]: 0.00503 µM | CC50 [14]: 1.54 µM | IC (TGI) [14]: 0.0179 µM

COc1c(C)cc2c(c1O)[C@H]1N[C@@H](C2)[C@H](C#N)N2C1[C@@H]1SC[C@]3(NCCc4c3[nH]c3ccc(O)cc43)C(=O)OC[C@H]2c2c3c(c(C)c(OC(C)=O)c21)OCO3 (stereo partly shown) [compound 61]
GI50 [1]: 0.00469 µM | CC50 [1]: 13.1 µM | IC (TGI) [1]: 0.0154 µM | GI50 [2]: 0.495 µM | CC50 [2]: 13.1 µM | IC (TGI) [2]: 1.76 µM | GI50 [3]: 0.00428 µM | CC50 [3]: 0.245 µM | IC (TGI) [3]: 0.009 µM | GI50 [4]: 0.225 µM | CC50 [4]: 4.77 µM | IC (TGI) [4]: 0.712 µM | GI50 [5]: 0.00514 µM | CC50 [5]: 7.97 µM | IC (TGI) [5]: 0.00934 µM | GI50 [6]: 0.00619 µM | CC50 [6]: 0.0607 µM | IC (TGI) [6]: 0.0188 µM | GI50 [7]: 0.00482 µM | CC50 [7]: 0.525 µM | IC (TGI) [7]: 0.00964 µM | GI50 [8]: 0.00298 µM | CC50 [8]: 0.0105 µM | IC (TGI) [8]: 0.0056 µM | GI50 [9]: 0.00117 µM | CC50 [9]: 0.00692 µM | IC (TGI) [9]: 0.00294 µM | GI50 [10]: 0.00356 µM | CC50 [10]: 0.0118 µM | IC (TGI) [10]: 0.00649 µM | GI50 [11]: 0.00256 µM | CC50 [11]: 0.642 µM | IC (TGI) [11]: 0.00862 µM | GI50 [12]: 0.00658 µM | CC50 [12]: 13.1 µM | IC (TGI) [12]: 1.4 µM | GI50 [13]: 0.0243 µM | CC50 [13]: 0.104 µM | IC (TGI) [13]: 0.0501 µM | GI50 [14]: 0.0171 µM | CC50 [14]: 8.23 µM | IC (TGI) [14]: 0.0709 µM

C=CCN1[C@@H]2c3c(cc(C)c(OC)c3O)C[C@H]1[C@H](C#N)N1C2[C@@H]2SC[C@]3(NCCc4cc(O)c(OC)cc43)C(=O)OC[C@H]1c1c3c(c(C)c(OC(=O)/C=C/c4ccccc4)c12)OCO3 (stereo partly shown) [compound 49]
GI50 [1]: 0.179 µM | CC50 [1]: 3.92 µM | IC (TGI) [1]: 0.564 µM | GI50 [2]: 0.672 µM | CC50 [2]: 11.3 µM | IC (TGI) [2]: 11.3 µM | GI50 [3]: 0.0496 µM | CC50 [3]: 11.3 µM | IC (TGI) [3]: 1.86 µM | GI50 [4]: 0.28 µM | CC50 [4]: 11.3 µM | IC (TGI) [4]: 0.616 µM | GI50 [5]: 0.107 µM | CC50 [5]: 11.3 µM | IC (TGI) [5]: 1.25 µM | GI50 [6]: 0.181 µM | CC50 [6]: 0.701 µM | IC (TGI) [6]: 0.356 µM | GI50 [7]: 0.165 µM | CC50 [7]: 1.13 µM | IC (TGI) [7]: 0.432 µM | GI50 [8]: 0.182 µM | CC50 [8]: 0.701 µM | IC (TGI) [8]: 0.357 µM | GI50 [9]: 0.0405 µM | CC50 [9]: 0.442 µM | IC (TGI) [9]: 0.175 µM | GI50 [10]: 0.189 µM | CC50 [10]: 0.929 µM | IC (TGI) [10]: 0.418 µM | GI50 [11]: 0.0377 µM | CC50 [11]: 5.1 µM | IC (TGI) [11]: 0.311 µM | GI50 [12]: 0.194 µM | CC50 [12]: 11.3 µM | IC (TGI) [12]: 0.588 µM | GI50 [13]: 0.184 µM | CC50 [13]: 1.01 µM | IC (TGI) [13]: 0.431 µM | GI50 [14]: 0.25 µM | CC50 [14]: 0.89 µM | IC (TGI) [14]: 0.471 µM

COc1cc2c(cc1O)CCN[C@]21CS[C@@H]2c3c(OC(C)=O)c(C)c4c(c3[C@H](COC1=O)N1C2C2c3c(cc(C)c(OC)c3O)C[C@@H]([C@@H]1C#N)N2C)OCO4 (stereo partly shown) [Et-770]
GI50 [1]: 0.00553 µM | CC50 [1]: 13 µM | IC (TGI) [1]: 0.115 µM | GI50 [2]: 0.0741 µM | IC (TGI) [2]: 13 µM | GI50 [3]: 0.000986 µM | CC50 [3]: 13 µM | IC (TGI) [3]: 0.0948 µM | GI50 [4]: 0.0121 µM | CC50 [4]: 13 µM | IC (TGI) [4]: 4.5 µM | GI50 [5]: 0.00416 µM | CC50 [5]: 13 µM | IC (TGI) [5]: 0.032 µM | GI50 [6]: 0.00263 µM | CC50 [6]: 0.0108 µM | IC (TGI) [6]: 0.00534 µM | GI50 [7]: 0.00332 µM | CC50 [7]: 13 µM | IC (TGI) [7]: 0.00851 µM | GI50 [8]: 0.00296 µM | CC50 [8]: 0.0122 µM | IC (TGI) [8]: 0.00601 µM | GI50 [9]: 0.00148 µM | CC50 [9]: 0.00634 µM | IC (TGI) [9]: 0.00306 µM | GI50 [10]: 0.00509 µM | IC (TGI) [10]: 0.0126 µM | GI50 [11]: 0.00165 µM | CC50 [11]: 6.63 µM | IC (TGI) [11]: 0.00802 µM | GI50 [12]: 0.00586 µM | CC50 [12]: 13 µM | IC (TGI) [12]: 0.013 µM | GI50 [13]: 0.00324 µM | CC50 [13]: 5.2 µM | IC (TGI) [13]: 0.00698 µM | GI50 [14]: 0.00309 µM | CC50 [14]: 0.0114 µM | IC (TGI) [14]: 0.00593 µM
